Assays:
Type in all cases: binding
VpBTN3 B30.2 ΔC = biological target: T1, VpBTN3 B30.2 ΔC (Vicugna pacos, UniProt A0A345DF50); assay: ITC; crystal structure
T1 construct: gene Btn3; intracellular B30.2 domain, residues 323-513, C-terminal loop truncated; pET32a, E. coli BL21(DE3); N-terminal His tag removed by TEV; pocket H381, H408, W421, K423, R442, R448, R499

[1] = biological target: T2, VpBTN2 B30.2 and VpBTN3 B30.2 ΔC domains (Vicugna pacos, UniProt A0A345DF50+A0A6J0B3M7); assay: ITC, DMASPP titrated into mixture of VpBTN2 and VpBTN3 B30.[…] ΔC (first titration)
T2 construct: gene Btn3; mixture of VpBTN2 B30.2 (residues 311-535) and VpBTN3 B30.2 ΔC (residues 323-513), mixed 2:1; E. coli BL21(DE3), His tags removed by TEV; VpBTN2 site R475, T508, V509
T2 sequence (A0A345DF50 323-513, stated change not applied): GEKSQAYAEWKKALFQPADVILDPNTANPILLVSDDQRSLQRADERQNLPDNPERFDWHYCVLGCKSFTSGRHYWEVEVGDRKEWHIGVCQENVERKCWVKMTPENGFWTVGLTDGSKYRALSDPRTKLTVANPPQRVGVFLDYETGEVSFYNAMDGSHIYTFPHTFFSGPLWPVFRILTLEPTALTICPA
T2 sequence (A0A6J0B3M7 311-535, stated change not applied): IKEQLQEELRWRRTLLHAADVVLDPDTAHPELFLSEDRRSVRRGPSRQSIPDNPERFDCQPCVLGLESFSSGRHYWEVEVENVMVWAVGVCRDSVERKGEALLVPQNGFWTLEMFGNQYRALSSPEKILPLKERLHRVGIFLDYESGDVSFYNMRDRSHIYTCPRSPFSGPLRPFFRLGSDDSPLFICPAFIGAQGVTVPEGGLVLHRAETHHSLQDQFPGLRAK

[2] = biological target: T3, BTN3A1 and BTN2A1 B30.2 domains (Homo sapiens, UniProt O00481+Q7KYR7); assay: ITC, DMASPP titrated into mixture of BTN2A1 and BTN3A1 B30.[…] (first titration)
T3 construct: BTN2A1 B30.2 in pET28a, Ni-NTA and DEAE; BTN3A1 B30.2 prepared as VpBTN3 B30.2; printed PDB ids are of BTN3A1 B30.2 only
T3 sequence (O00481 328-513): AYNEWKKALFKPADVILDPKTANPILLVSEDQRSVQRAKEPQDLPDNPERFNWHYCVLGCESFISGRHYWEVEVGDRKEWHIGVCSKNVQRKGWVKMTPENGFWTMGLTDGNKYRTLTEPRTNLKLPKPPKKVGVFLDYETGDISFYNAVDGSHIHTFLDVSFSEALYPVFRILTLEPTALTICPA
T3 sequence (Q7KYR7 310-506 limits assumed): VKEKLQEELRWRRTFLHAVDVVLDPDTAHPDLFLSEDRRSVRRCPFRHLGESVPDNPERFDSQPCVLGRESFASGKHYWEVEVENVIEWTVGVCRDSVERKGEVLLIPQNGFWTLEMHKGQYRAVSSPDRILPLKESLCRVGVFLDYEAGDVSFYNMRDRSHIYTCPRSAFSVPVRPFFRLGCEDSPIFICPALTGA

[3] = biological target: T4, VpBTN2 B30.2 and full-length VpBTN3 B30.2 domain (Vicugna pacos, UniProt A0A345DF50+A0A6J0B3M7); assay: ITC, VpBTN2 B30.[…] titrated into preformed full-length VpBTN3 B30.2-DMASPP complex (second titration); details: 25 °C, 25 mM Hepes pH 7.5, 150 mM NaCl; molecular glue; protein-protein KD in presence of DMASPP
T4 construct: gene Btn3; E. coli
T4 sequence (A0A345DF50 323-557 limits assumed): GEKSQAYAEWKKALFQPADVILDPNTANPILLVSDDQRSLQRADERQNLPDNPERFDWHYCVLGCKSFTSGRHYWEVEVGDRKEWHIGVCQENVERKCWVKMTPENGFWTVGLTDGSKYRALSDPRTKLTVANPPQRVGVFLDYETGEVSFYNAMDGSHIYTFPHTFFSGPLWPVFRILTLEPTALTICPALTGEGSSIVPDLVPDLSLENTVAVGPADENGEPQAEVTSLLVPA
T4 sequence (A0A6J0B3M7 311-535): as the sequence (A0A6J0B3M7 311-535, stated change not applied) above

[4] = biological target: T2, VpBTN2 B30.2 and VpBTN3 B30.2 ΔC domains; assay: ITC, VpBTN2 B30.[…] titrated into preformed VpBTN3 B30.[…] ΔC-DMASPP complex (second titration); details: 25 °C, 25 mM Hepes pH 7.5, 150 mM NaCl; molecular glue; protein-protein KD in presence of DMASPP
[5] = biological target: T3, BTN3A1 and BTN2A1 B30.2 domains; assay: ITC, second titration (BTN2A1 B30.[…] into BTN3A1 B30.2-DMASPP complex); details: 25 °C, 25 mM Hepes pH 7.5, 150 mM NaCl; molecular glue; protein-protein KD in presence of DMASPP

T1 sequence (A0A345DF50 323-513, stated change not applied): as the sequence (A0A345DF50 323-513, stated change not applied) above

CC(C)=CCSP(=O)(O)OP(=O)(O)O [DMASPP]
Kd (VpBTN3 B30.2 ΔC): 44.7 µM | Kd [1]: 4.34 µM | Kd [2]: 8.19 µM | KD [3]: 15.2 µM | KD [4]: 22.8 µM | KD [5]: 18.8 µM
